A short description of data set [1]: Thermodynamic solubility (solid shaken in solvent at 37° C., filtrate by LC/UV). It counts as physicochemical. Particulars: thermodynamic from solid. How it is done: Briefly, 300 ul of solvent (ethanol, 0.1 M HCl or distilled H2O) were added to 14-16 mg of the solid compound (5 parallel measurements per sample, per solvent, mean concentrations 93-107 mM). The mixtures were shaken at 37° C. for 24 and 72 hours. Concentrations of the filtrates were determined by liquid chromatography with UV detector (LC/UV) with 3-point calibration.
Crystal form was checked by X-ray powder diffraction (XRPD) after recovering the slurry at 24 and 72 hours. […] The exact cause of this observed phenomenon is not known.

Experiment in data set [2]: as above
It counts as physicochemical. Conditions: water and 1.0 M HCl, 24 vs 72 hours.

The nature of data set [3]: Pharmacokinetic studies on clinical trial subjects after oral CDB-4124. It counts as in vivo, human. Particulars: oral CDB-4124, 12.5 mg vs 50 mg. As to the method:
The maximum concentrations of CDB-4124 and its mono-demethylated metabolite (CDB-4453) for the 12.5 mg dose were 25% of the 50 mg dose. All liver toxicities resolved in those women that returned for safety follow-ups, including those subjects that developed liver-associated serious adverse effects (SAEs).
Pharmacokinetic studies performed on participating subjects detected a high Cmax and a Tmax at 1-2 hours following administration. […] Metabolism of CDB-4124 by the liver provides the opportunity for liver damage and greatly reduces the concentration of the antiprogestin before it reaches the systemic circulation. Thus, alternative routes of administration of antiprogestins that avoid first pass metabolism such as, without limitation, intravenous, intramuscular, and sublingual, should allow antiprogestins to be absorbed directly into the systemic circulation and thereby provide a method for treating progestone-dependent conditions while avoiding liver toxicity. Administration routes which avoid first pass metabolism may also require less drug per dose to achieve the same therapeutic benefit relative to oral administration.

A short description of data set [4]: Oral vs vaginal pharmacokinetics in beagles (25 mg). It counts as in vivo. How it is done: FIG. 1 illustrates a comparison of the Cmax (peak serum concentration) and area under the curve (AUC) following oral and vaginal administration of CDB-4124 or CDB-4453 at a 25 mg dose in beagles.
Beagles were administered 25 mg of CDB-4124 or CDB-4453 (the monodemethylated metabolite of CDB-4124) formulated as either a micronized powder or a vaginal suppository. […] Moreover, systemic exposure of the drug is much lower when administered locally (compare AUC for CDB-4124 and CDB-4453 when administered vaginally vs. orally).

Where [5] appears, read: organic solvent or mixture, ethanol, read-out: Thermodynamic solubility, Ethanol, Mean.
Where [6] appears, read: simulated gastric fluid, 0.1M HCl, read-out: Thermodynamic solubility, 0.1M HCl, Mean.
Setting [7] is: distilled water, read-out: Thermodynamic solubility, Distilled water, Mean.
[8] abbreviates: distilled water, read-out: Thermodynamic solubility, distilled water, Mean.

The text below walks through data of US20150203526A1, “NOVEL 19-NOR-STEROIDS AND THEIR USE FOR TREATING PROGESTERONE- DEPENDENT CONDITIONS” (REPROS THERAPEUTICS INC., priority 2010, published 2015).

In brackets after ≈: the same amount, converted by molar mass. Read-outs that look alike come from different tables or passages of the source.

With `COCC(=O)[C@@]1(OC(C)=O)CC[C@H]2[C@@H]3CCC4=CC(=O)CCC4=C3[C@@H](c3ccc(C(C)=O)cc3)C[C@@]21C` [CDB-4239, 21-methoxy-17α-acetoxy-11β-(4-acetylphenyl)-19-norpregna-4,9-diene-3,20-dione], the results for the thermodynamic solubility at 24 h in data set [1] (setting [5]), in data set [1] (setting [6]) and in data set [1] (setting [7]) were > 98200 µM, 140 µM (≈ 70.8 µg/mL) and 141 µM (≈ 70.9 µg/mL), respectively. The values for the solubility (thermodynamic) at 72 h in data set [1] (setting [5]), in data set [1] (setting [6]) and in data set [1] (setting [8]) were > 100000 µM, 110 µM (≈ 55.6 µg/mL) and 54.8 µM (≈ 27.7 µg/mL), respectively. For the same molecule, the “Tendency of water and HCl solubilities between 24 and 72 hours” value in data set [2] is “decreasing tendency”.

For the molecule `CC(=O)OCC(=O)[C@@]1(OC(C)=O)CC[C@H]2[C@@H]3CCC4=CC(=O)CCC4=C3[C@@H](c3ccc(C(C)=O)cc3)C[C@@]21C` [CDB-4241, 21-acetoxy-17α-acetoxy-11β-(4-acetylphenyl)-19-norpregna-4,9-diene-3,20-dione], the results for the solubility (thermodynamic) at 24 h in data set [1] (setting [5]), in data set [1] (setting [6]) and in data set [1] (setting [7]) were 26300 µM (≈ 14000 µg/mL), 3.21 µM (≈ 1.71 µg/mL) and 3.08 µM (≈ 1.64 µg/mL), respectively. Further, the solubility (thermodynamic) (in general, solubility found after equilibrating the solid with the medium) at 72 h in data set [1] (setting [5]) was 21600 µM (≈ 11500 µg/mL); in data set [1] (setting [6]) it was 3.9 µM (≈ 2.08 µg/mL); in data set [1] (setting [8]), 3.05 µM (≈ 1.62 µg/mL).

Regarding `CNc1ccc([C@H]2C[C@@]3(C)[C@@H](CC[C@]3(OC(C)=O)C(=O)COC)[C@@H]3CCC4=CC(=O)CCC4=C32)cc1` [CDB-4453], the “Maximum concentration for the 12.5 mg dose relative to the 50 mg dose” value in data set [3] stood at 25%. The “Metabolism after peak plasma concentration” value in data set [4] (oral micronized powder) is listed as “rapidly metabolized”. In addition, in data set [4] (vaginal suppository), the Metabolism result is given as “metabolized slowly” and the “Peak plasma concentrations (Cmax)” value is “relatively low”. Also, the “Systemic exposure (AUC), local vs oral” value in data set [4] (vaginal vs oral) was “much lower”.

As for `CC(=O)O[C@]1(C(C)=O)CC[C@H]2[C@@H]3CCC4=CC(=O)CCC4=C3[C@@H](c3ccc(C(C)=O)cc3)C[C@@]21C` [REP-4510, 17α-acetoxy-11β-(4-acetylphenyl)-19-norpregna-4,9-dien-3,20-dione], the results for the thermodynamic solubility at 24 h in data set [1] (setting [5]), in data set [1] (setting [6]) and in data set [1] (setting [7]) were 3300 µM (≈ 1570 µg/mL), 0.5 µM (≈ 0.237 µg/mL) and 0.52 µM (≈ 0.247 µg/mL), respectively. Besides, the solubility (thermodynamic) at 72 h in data set [1] (setting [5]) is 2900 µM (≈ 1380 µg/mL); in data set [1] (setting [6]) it was 0.45 µM (≈ 0.214 µg/mL); in data set [1] (setting [8]), 0.44 µM (≈ 0.209 µg/mL).
